Test system: MF CD34+ cells
Experiment: Colony forming assay (CFU-GM) of cultured MF CD34+ cells with IL-8
Assay type: cell-based, human
Excerpt: FIGS. 5A, 5B. 5C, 5D, and 5E illustrate that a CXCR1/CXCR2 inhibitor reverses effects of IL-8 on MF CD34^+ cell colony formation. […] CFU-GM=colony-forming unit-granulocyte-macrophage. FIGS. 5B and 5C illustrate that IL-8 increased CFU-GM colony formation by MF CD34^+ cells in a dose dependent fashion and that the effects of IL-8 were inhibited by treatment with Ladx. FIG. 5B. Normal cells. FIG. 5C. MF cells. […] Con=control. IL-8 concentrations increase from left to right. […] P values were as follows: w/o Ladx: Con vs IL-8—10 ng: 0.159332; Con vs IL-8—20 ng: 0.011976; Con vs IL-8—50 ng: 0.00262; Con vs IL-8—100 ng: 0.00042; w/ 10 μM Ladx: Con vs Ladx: 0.315782; IL-8—10 ng vs plus Ladx: 0.295851; IL-8—20 ng vs plus Ladx: 0.077726; IL-8—50 ng vs plus Ladx: 0.031355; IL-8—100 ng vs plus Ladx: 0.081595.

## C[C@@H](C(=O)NS(C)(=O)=O)c1ccc(OS(=O)(=O)C(F)(F)F)cc1 [Ladarixin, R(-)-2-[(4′-trifluoromethanesulfonyloxy)phenyl]-N-methanesulfonyl propionamide]
10 μM Ladx, FIG. 5E
  effect on IL-8 increased CFU-GM colony formation by MF samples with the highest expression of CXCR1/CXCR2: corrected
Addition of ladarixin, FIG. 5C
  effect on IL-8 increased numbers of MF CFU-GM colonies: blunted

Reference: patent publication US20240115527A1, “CXCR1/CXCR2 INHIBITORS FOR USE IN TREATING MYELOFIBROSIS” (Icahn School of Medicine at Mount Sinai, priority 2020, published 2024)
